Measurements from paper PMC4655241, “The Structure of a Novel Thermophilic Esterase from the Planctomycetes Species, Thermogutta terrifontis Reveals an Open Active Site Due to a Minimal ‘Cap’ Domain” (Frontiers in Microbiology, 2015).
Each block holds one compound with its values, some of them ahead of it.

What was measured:
TtEst2 [1] = target: T1, TtEst2 (Thermogutta terrifontis, UniProt A0A0X1KHD1); test: X-ray crystal structure, soak; type: binding; details: carboxyl pocket of active site
T1 construct: mature form, predicted signal peptide removed; pLATE52 N-terminal His6 tag with WELQ protease site (cleavage not mentioned); E. coli BL21 (DE3); monomer; residues 1-283 modelled
T1 sequence (A0A0X1KHD1 entry or part of it): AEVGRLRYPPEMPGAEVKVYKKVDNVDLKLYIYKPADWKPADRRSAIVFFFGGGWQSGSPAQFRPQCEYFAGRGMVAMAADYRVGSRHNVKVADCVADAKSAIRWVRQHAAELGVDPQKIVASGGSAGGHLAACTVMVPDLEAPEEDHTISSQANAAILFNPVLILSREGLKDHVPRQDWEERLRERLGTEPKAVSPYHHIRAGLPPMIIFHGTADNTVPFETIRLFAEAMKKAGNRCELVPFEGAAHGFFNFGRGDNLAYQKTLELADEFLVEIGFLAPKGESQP

TtEst2 [2] = target: T1, TtEst2; test: pNP release, A410; type: biochemical; details: 1 mM substrate, 20 mM HEPES, 100 mM NaCl, pH 7.5, 25 C

- X-ray crystal structure, soak (TtEst2 [1]; pH 4.5, soaked as 25 mM pNP-valerate, only valerate part seen, 1.79 A): 5AOC (valerate bound)
Compound: CCCCC(=O)O [valerate]

- X-ray crystal structure, soak (TtEst2 [1]; pH 4.5, 25 mM soak, oxyanion hole, 1.71 A): 5AOA (propionate bound)
Compound: CCC(=O)O [propionate]

Compound: CC(=O)Oc1ccc([N+](=O)[O-])cc1 [pNP-acetate]
- pNP release, A410 (TtEst2 [2]): The enzyme was most active toward pNP-acetate

- X-ray crystal structure, soak (TtEst2 [1]; pH 4.5, 25 mM soak, oxyanion hole, 1.79 A): 5AOB (butyrate bound)
Compound: CCCC(=O)O [butyrate]
